Assay results from patent US7226761B2, “Manufacture of five-carbon sugars and sugar alcohols” (Danisco Sweeteners Oy, priority 1992, dated 2007).

T1: DOG1 (Saccharomyces cerevisiae, UniProt P38774)
T1 construct: expressed in transfected cells; host or cells: S. cerevisiae H1104 (W303-1B) transformed with plasmid B1020 (YEplac195, ADH1 promoter-DOG1-ADH1 terminator) = strain H1514; crude cell extract
T1 sequence (P38774 1-246): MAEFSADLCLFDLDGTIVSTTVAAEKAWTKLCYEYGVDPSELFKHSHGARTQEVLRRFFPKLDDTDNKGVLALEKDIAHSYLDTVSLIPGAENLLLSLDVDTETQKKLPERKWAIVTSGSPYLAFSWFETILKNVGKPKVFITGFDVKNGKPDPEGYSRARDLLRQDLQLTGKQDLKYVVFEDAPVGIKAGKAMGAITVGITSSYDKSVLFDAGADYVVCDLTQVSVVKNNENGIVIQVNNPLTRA


Key:
DOG1 [1] = target: T1, DOG1; assay: Specificity of DOG1 towards sugar phosphates in yeast cell extracts (phosphate release); type: biochemical, S. cerevisiae; conditions: 20 mM substrate; cell extract of H1514; relative to 2-deoxyglucose-6-P as 100%
Description: The specificity of DOG1 towards xylulose-5-P, ribulose-5-P, ribose-5-P and 2-deoxyglucose-6-P was determined using 20 mM substrate concentrations. Yeast cell extracts were prepared as described in example 15, except that 50 mM imidazole-HCl, 10 mM MgCl2 buffer, pH 6.0 was used. 10 μl of extract and 210 μl of substrate (20 mM) in the same buffer was incubated for 30 min, 30° C. The reaction was stopped with final 2% of TCA and the phosphate released was measured using ammonium molybdate (15 mM), zinc acetate (100 mM), pH 5.0 as the reagent. The formation of molybdenum blue was measured at 350 nm, and quantified by phosphate standards (Sanz, P. et al., Yeast 10:1195–1202 (1994); Bencini, D. A. et al., Anal. Biochem. 132:254–258 (1983)).

DOG1 [2] = target: T1, DOG1; conditions: 40 mM substrate; relative to 2-deoxyglucose-6-P as 100%; cited from earlier work
[3] = Xylulose 5-phosphate reductase (XPDH/APDH) activity assay with NADH; type: biochemical; conditions: 5 mM xylulose 5-phosphate as the substrate
Description: The strain BD 170 [pGTK24(MXD2)] as well as untransformed strain BD 170 was grown overnight on either LB or LB, containing 10% glucose, cell extracts were prepared and the XDH activity measured. The assay conditions for measuring XDH activity were: 30° C., 50 mM Tris-HCI, pH 7.0, 0.2 mM NADH and 10 mM D-xylulose. Changes of absorption at 340 nm were recorded; one unit of activity was defined as the amount of enzyme that catalyzed the reduction of one […] of substrate per minute under the conditions of assay (assuming the differential absorption coefficient NADH/NAD^+ to be equal to […]). The following levels of XDH activity were measured in the strain BD170 [pGTK24(MXD2)] grown on the two media: LB—0.5 U/mgproteins, LB-glucose 0.05–0.15 U/mgprotein. Thus, glucose appeared to repress the activity of the aldolase promoter 3–10 fold. No XDH activity could be detected in the strain BD170 grown on either of the two media.
B. subtilis strain BD170 was transformed with pGTK74(LRXPDH) and pGTK74(BHDH2). The transformants were grown overnight in LB containing 25 mg/liter kanamycin, cell extract were prepared by sonication and the activity of XPDH activity was measured. The conditions for measuring the XPDH activity were similar to those used for measuring the xylitol dehydrogenase activity except that xylulose 5-phosphate was used as the substrate (usually at 5 mM concentration) instead of xylulose. The activities were approximately 0.3 U/mg protein for the XPDH from L. rhamnosus and about 0.5 U/mg protein for B. halodurans enzyme.
Enterococcus avium ATCC 35655 was cultivated at 30° C. in 5 liters of a medium containing: peptone—10 g/l, yeast extract—5 g/l, beef extract 10 g/l, K2HPO4 2 g/l, NaCl—5 g/l, MgSO4—0.02 g/l, MnCl2—0.05 g/l, ammonium citrate 2 g/l, Tween 20—1.1 ml/l, xylitol—20g/l, pH 6.5. […]

[4] = Stereospecificity of D-xylulose 5-phosphate reduction, products dephosphorylated and analyzed by HPLC; type: biochemical; conditions: 10 mM xylulose 5-phosphate, 10 mM NADH, pH 7.0, 37° C.
Description: The stereospecificity of xylulose-phosphate reduction by the B. halodurans XPDH was verified by the following procedure. The reaction between D-xylulose 5-phosphate and NADH was conducted at 37° C. for several hours under the following conditions: 100 mM Tris-HC buffer, pH 7.0, 10 mM xylulose 5-phosphate, 10 mM NADH, […] the enzyme lysate. The reaction products were dephosphorylated with alkaline phosphatase and analyzed by HPLC. […] It should be noted that among the highest-scoring four homologues of the L. rhamnosus XPDH, the enzyme from B. holodurans is the least homologous. This can be interpreted as an indication that the other three homologues (SEQ ID NO:51, 52 and 53) are most probably also xylitol-phosphate dehydrogenases.
The stereospecificity of D-xylulose 5-phosphate reduction by the E. avium arabitol-phosphate dehydrogenase was verified by the following procedure. The reaction between D-xylulose 5-phosphate and NADH was conducted at 37° C. for several hours under the following conditions: 100 mM Tris-HCl buffer, pH 7.0, 10 mM xylulose 5-phosphate, 10 mM NADH, 1U of the enzyme. The reaction products were dephosphorylated with alkaline phosphatase and analyzed by HPLC. […] There are no other arabitol-phosphate dehydrogenases described in the art.
Both arabitol-phosphate dehydrogenase genes were expressed using the same tools and methods as those used for the expression of xylitol-phosphate dehydrogenases (Example 26). Briefly, the coding regions of the two arabitol-phosphate dehydrogenase genes were amplified using the chromosomal DNA of the microorganism from which the enzyme was isolated and the appropriate PCR primers. In the case of E. avium the primers were oAPDH 51 […] SEQ ID NO: 71) and the anti-sense primer oAPDH 31 […]) SEQ ID NO: 72. For B. halodurans, the sense primer was oBHDH 5 ([…], SEQ ID NO: 73) and the anti-sense primer was oBHDH 3 ([…], SEQ ID NO: 74). […] The stereospecificity of D-xylulose 5-phosphate reduction by the previously unknown enzyme from B. halodurans was determined as described in Example 30.

[5] = XDH activity assay in yeast cell extracts, reaction started with D-xylulose; type: biochemical; conditions: 1 mM D-xylulose; 0.2 mM NADH; pH 7.0; cell extract
Text: (§1) The xylitol dehydrogenases of P. stipitis, Trichoderma reesei and S. cerevisiae were investigated regarding their specificities towards their sugar substrates. Each of the XDH encoding genes was expressed on multi-copy vectors pAOS67, B1070 and B1163, respectively (see Example 12). Yeast strain H1104 (pAOS67, B1163) and H1052 (B1070) harboring each of the multi-copy vectors, H1160, H1886 and H1748, respectively, were cultivated on SCD medium lacking the appropriate selection marker (histidine, leucine, uracil, respectively). Cells were collected by centrifugation and washed twice with 100 mM sodium phosphate buffer pH 7.0. Cells were resuspended at a concentration of 500 mg/ml wet weight, corresponding approximately to 75 mg/ml dry weight, in the same buffer. 1 ml of this suspension was vortexed with 1 g glass beads (0,5 mm Ø) for 15 min. at 4° C., centrifuged in an Eppendorf centrifuge (13,000 rpm) and the supernatant was assayed. XDH activity was assayed in a medium containing 50 mM Pipes KOH pH 7.0, 0.2 mM NADH. The reaction was started by addition of D-xylulose or D-ribulose at a final concentration of 1 mM. The activity was measured by following the adsorption of NADH at 340 nm.

[6] = XDH activity assay in yeast cell extracts, reaction started with D-ribulose; type: biochemical; conditions: 1 mM D-ribulose; 0.2 mM NADH; pH 7.0; cell extract
Text: as §1

Molecule	Relative activity (20 mM) (DOG1 [1]) [%]	Activity reported in the literature (40 mM) (DOG1 [2]) [%]	specific activity towards D-xylulose, normalized to D-xylulose activity being 100% [5] [%]	specific activity towards D-ribulose, normalized to D-xylulose activity being 100% [6] [%]	further results
O=C(CO)[C@H](O)[C@H](O)COP(=O)(O)O [ribulose-5-P, ribulose-5-phosphate]	6	7	–	–	–
O=CC[C@@H](O)[C@H](O)[C@H](O)COP(=O)(O)O [2-deoxyglucose-6-P, 2-deoxyglucose-6-phosphate]	100	100	–	–	–
O=C[C@H](O)[C@H](O)[C@H](O)COP(=O)(O)O [ribose-5-P, ribose-5-phosphate]	52	42	–	–	–
arabitol-phosphate dehydrogenase: arabitol-phosphate dehydrogenase purified from Enterococcus avium ATCC 35655, SEQ ID NO:69 (protein, Bacillus halodurans) MSKTMKGVSKQAPGYDQMAFIDLSVPEATDDKVLIKVAYTGICGSDIHTFKGEYKNPTTPVVLGHEFSGQVVEVGANVTKVKVGDRVTSETTFYVCGECDYCKEKQYNLCPHRKGIGTQQNGSMANYVLAREESIHLLPDHLSYEGAAMSEPLACCVHAMYQKSHLELKDTIIIMGPGPIGLYLLQIAKEIGAFVIMTGITKDAHRLALAKKLGADVIVDTMKEDLAKVVNEITDGYGVDKVYDASGAVPAVNASLPLIRKQGQFIQVGLFANKMVDLDTESIIQREIEYIGSRSQNPYDWPIAIHLLAKGAINIDEMITKKYPLTEWREAFDKVMEGNEIKVMIESNPEEF	–	–	–	–	specific activity of purified enzyme [3]: about 12 U/mgprotein; products found in the reaction mixture / stereospecificity [4]: Only arabitol and xylulose (corresponding to the unreacted xylulose 5-phosphate) were found
Saccharomyces cerevisiae XDH: enzyme having xylitol dehydrogenase activity encoded by S. cerevisiae ORF YLR070c, expressed on B1163 (protein, UniProt Q07993 1-356, looked up) D-xylulose reductase: MTDLTTQEAIVLERPGKITLTNVSIPKISDPNEVIIQIKATGICGSDIHYYTHGRIANYVVESPMVLGHESSGIVALIGENVKTLKVGDRVALEPGIPDRFSPEMKEGRYNLDPNLKFAATPPFDGTLTKYYKTMKDFVYKLPDDVSFEEGALIEPLSVAIHANKLAKIKFGARCVVFGAGPIGLLAGKVASVFGAADVVFVDLLENKLETARQFGATHIVNSGDLPHGVTVDSVIKKAIGKKGADVVFECSGAEPCVRAGIEVCKAGGTIVQVGMGQEEIQFPISIIPTKELTFQGCFRYCQGDYSDSIELVSSRKLSLKPFITHRYSFKDAVEAFEETSHHPLNNIKTIIEGPE	–	–	100	10	–
Pichia stipitis XDH: xylitol dehydrogenase encoded by the XYL2 gene from Pichia stipitis, expressed in yeast on pAOS67 (protein, UniProt P22144 1-363, looked up) D-xylulose reductase: MTANPSLVLNKIDDISFETYDAPEISEPTDVLVQVKKTGICGSDIHFYAHGRIGNFVLTKPMVLGHESAGTVVQVGKGVTSLKVGDNVAIEPGIPSRFSDEYKSGHYNLCPHMAFAATPNSKEGEPNPPGTLCKYFKSPEDFLVKLPDHVSLELGALVEPLSVGVHASKLGSVAFGDYVAVFGAGPVGLLAAAVAKTFGAKGVIVVDIFDNKLKMAKDIGAATHTFNSKTGGSEELIKAFGGNVPNVVLECTGAEPCIKLGVDAIAPGGRFVQVGNAAGPVSFPITVFAMKELTLFGSFRYGFNDYKTAVGIFDTNYQNGRENAPIDFEQLITHRYKFKDAIEAYDLVRAGKGAVKCLIDGPE	–	–	100	25	–
